Results as given in US10473647B1, “Peptides for use in treatment and diagnosis of type 1 diabetes” (ImmusanT, Inc., priority 2014, dated 2019).
No end group written: not given here.

Tests used:
Type in all cases: cell-based, human
undepleted whole blood [1] = experiment: Whole blood cytokine assay, IFNg, undepleted blood, number of subjects with >=1.25 fold over medium (Example 2); settings: 24 h, peptides 20 ug/mL, pools 4 ug/mL, NEX-01/Nexgen POOL 25 uM, CEFT 1 ug/mL
Protocol: (§1) The depleted blood as well as the remaining undepleted whole blood was then utilized in whole blood cytokine release assays. T-cell cytokine responses were assessed for reactivity to pools of 17mer peptides encompassing all unique 12mer amino-acid sequences derived from pancreatic islet antigens commonly recognized by autoantibodies in T1D: insulin, glutamic decarboxylase-65 (GAD65), and insulinoma-associated antigen (IA)-2 as provided in Table 13A and Table 13B.
(§2) Fresh heparinized blood was incubated with peptide. Concentrations of individual islet-autoantigen peptides were 20 μg/mL and constituent peptides in islet-autoantigen pools were 4 ug/mL. Control MHC class II peptide mix CEFT was used at 1 μg/mL. Gliadin peptide pools were added to whole blood assays at 25 μM. Whole blood assays were incubated for 24 h at 37° C. in 5% CO2. Plasma was separated from blood after centrifugation at 500×g for 10 minutes at room temperature and then transferred to a corresponding well in a “mirror image” sterile 96-well plate. and frozen at −80° C. until use. Multiplex bead-based cytokine assays (MAGPix) were performed according to manufacturer's instructions on thawed plasma. Concentrations of interferon (IFN)-γ-induced protein-10 (IP-10), interleukin (IL)-2 and IFN-γ. Table 14 is a summary of the results for the whole blood cytokine assays which expresses the data in the number of subjects that are positive for ≥1.25 fold production of cytokine over cells incubated with medium only (background).

[2] = test system: CD8+ T cell depleted blood; experiment: Whole blood cytokine assay, IL-2, CD8+ T cell depleted blood (Example 2); settings: T1D Subjects (n of 6), 24 h, peptides 20 ug/mL, pools 4 ug/mL, NEX-01/Nexgen POOL 25 uM, CEFT 1 ug/mL
Protocol: (§3) Depletion of human CD4+ and CD8+ T cells directly from whole blood, using CD4 and CD8 Dynabeads respectively (Dynabeads Human CD4, Life Technologies, #11145D; Dynabeads Human CD8, Life Technologies, #11145D), was done according to the manufacturer's protocol. Briefly, the Dynabeads were resuspended and the desired volume was transferred to a 15 Ml tube. The calculation of the volume of beads added to whole blood was 2×10^6 CD4 beads (25 μL) and 4×10^6 CD8 beads (50 μL) per Ml of whole blood. The beads were first washed with 3 Ml PBS, vortexed and placed on the magnet for 1 minute. Supernatant was discarded and beads were removed from the magnet. Whole blood was then added to the beads at the volume calculated for the concentration of beads in the tubes. The tubes containing whole blood and Dynabeads were then incubated 45 minutes at 4° C. on a continuous rocker.
(§4) Tubes were then placed into the magnet for 2 minutes. The whole blood supernatant was then transferred to a new tube for use in 24-hour Whole Blood Assay or for Flow Cytometric Analysis. Magnetic beads were discarded.
as §1, §2

undepleted whole blood [3] = experiment: Whole blood cytokine assay, IL-2, undepleted blood, number of subjects with >=1.25 fold over medium (Example 2); settings: 24 h, peptides 20 ug/mL, pools 4 ug/mL, NEX-01/Nexgen POOL 25 uM, CEFT 1 ug/mL
Protocol: as §1, §2

[4] = test system: CD4+ T cell depleted blood; experiment: Whole blood cytokine assay, IP-10, CD4+ T cell depleted blood (Example 2); settings: T1D Subjects (n of 6), 24 h, peptides 20 ug/mL, pools 4 ug/mL, NEX-01/Nexgen POOL 25 uM, CEFT 1 ug/mL
Protocol: as §3, §4, §1, §2

[5] = test system: CD4+ T cell depleted blood; experiment: Whole blood cytokine assay, IFNg, CD4+ T cell depleted blood (Example 2); settings: T1D Subjects (n of 6), 24 h, peptides 20 ug/mL, pools 4 ug/mL, NEX-01/Nexgen POOL 25 uM, CEFT 1 ug/mL
Protocol: as §3, §4, §1, §2

undepleted whole blood [6] = experiment: Whole blood cytokine assay, IP-10, undepleted blood, number of subjects with >=1.25 fold over medium (Example 2); settings: 24 h, peptides 20 ug/mL, pools 4 ug/mL, NEX-01/Nexgen POOL 25 uM, CEFT 1 ug/mL
Protocol: as §1, §2

[7] = test system: CD8+ T cell depleted blood; experiment: Whole blood cytokine assay, IP-10, CD8+ T cell depleted blood (Example 2); settings: T1D Subjects (n of 6), 24 h, peptides 20 ug/mL, pools 4 ug/mL, NEX-01/Nexgen POOL 25 uM, CEFT 1 ug/mL
Protocol: as §3, §4, §1, §2

[8] = test system: CD8+ T cell depleted blood; experiment: Whole blood cytokine assay, IFNg, CD8+ T cell depleted blood (Example 2); settings: T1D Subjects (n of 6), 24 h, peptides 20 ug/mL, pools 4 ug/mL, NEX-01/Nexgen POOL 25 uM, CEFT 1 ug/mL
Protocol: as §3, §4, §1, §2

[9] = test system: whole blood from subjects with Type 1 Diabetes; experiment: Whole blood IP-10 release assay, fine mapping of preproinsulin epitope (Example 3); settings: peptide 10 μM; average of 4 subjects with T1D; FIG. 1A-1C
Description: The leader sequence of the preproinsulin epitope was fine mapped with lys-substituted peptides and C- and N-terminal truncations. […] Without wishing to be bound by any theory, a therapeutic and/or diagnostic peptide in accordance with the present disclosure may be selected to avoid CD8 activity but ensure that CD4 T cells were targeted. The data are the averages of 4 subjects whole blood IP-10 release measured as fold change over medium alone without peptide.
Whole blood was collected from 4 subjects with Type 1 Diabetes aged between 29 and 45-years old. […] In whole blood assays using fresh heparinized blood incubated with peptide (final concentration 10 μM) in phosphate buffered saline (PBS) and DMSO in 96-well round-bottom plates. Peptides (purity by LC-MS >80%) were truncations or lysine-substituted variants of a sequence in preproinsulin shown to be immunogenic in previous studies comparing peptides spanning this polypeptide. […] Assay plates were run on the Luminex MAGPIX magnetic plate reader. The upper limit of quantitation is 10,000 pg/mL and the lower limit of detection is 3.2 pg/mL. The Fold Change of cytokine concentrations from incubations with individual peptides was calculated by dividing the cytokine concentration from the individual peptide incubations by the cytokine concentration of incubations with PBS and DMSO (NIL) on the same assay plates. […]

[10] = Healthy Subjects (n of 4), whole blood
[11] = T1D Subjects (n of 6), Undepleted WB

Substance	Fold Change IFNg, number of subjects positive for ≥1.25 fold production of cytokine over medium only (undepleted whole blood [1]; [10])	Fold Change IFNg, number of subjects positive for ≥1.25 fold production of cytokine over medium only (undepleted whole blood [1]; [11])	Fold Change IL-2, number of subjects positive for ≥1.25 fold production of cytokine over medium only [2]	Fold Change IL-2, number of subjects positive for ≥1.25 fold production of cytokine over medium only (undepleted whole blood [3]; [10])	Fold Change IL-2, number of subjects positive for ≥1.25 fold production of cytokine over medium only (undepleted whole blood [3]; [11])	Fold Change IP-10, number of subjects positive for ≥1.25 fold production of cytokine over medium only [4]	Fold Change IFNg, number of subjects positive for ≥1.25 fold production of cytokine over medium only [5]	Fold Change IP-10, number of subjects positive for ≥1.25 fold production of cytokine over medium only (undepleted whole blood [6]; [10])	Fold Change IP-10, number of subjects positive for ≥1.25 fold production of cytokine over medium only (undepleted whole blood [6]; [11])	Fold Change IP-10, number of subjects positive for ≥1.25 fold production of cytokine over medium only [7]	Fold Change IFNg, number of subjects positive for ≥1.25 fold production of cytokine over medium only [8]	bioactivity in whole blood IP-10 release assay (fold change over medium alone), in words [9]
20150-24: peptide tested in Example 2 whole blood cytokine assays (Tables 13A/13B, 14) (PLLALLALWGPDPAAAF)	1/4	4/6	6/6	1/4	4/6	3/6	1/6	4/4	6/6	5/6	5/6	–
L2P1, 049 (FNQLSTGLDMVGLAADW)	–	–	–	–	–	2/6	1/6	–	–	2/6	–	–
20150-05-W1: peptide tested in Example 2 whole blood cytokine assays (Tables 13A/13B, 14) (REAEDLQVGQVELGGGP)	–	–	1/6	–	–	3/6	1/6	3/4	4/6	5/6	1/6	–
L2P1, 051 (NMFTYEIAPVFVLLEYV)	–	–	2/6	–	1/6	3/6	1/6	3/4	4/6	5/6	2/6	–
LLALLALWGPD [SEQ ID NO: 14]	–	–	–	–	–	–	–	–	–	–	–	compatible with an epitope for CD4 T cells
LPLLALLAL [SEQ ID NO: 76]	–	–	–	–	–	–	–	–	–	–	–	suggests this is an epitope for CD8 T cells
20150-19 (EDLQVGQVELGGGPGAG-NH2) [Peptide 20150-19]	1/4	–	1/6	–	–	–	2/6	1/4	–	–	3/6	–
20150-11-W1 (NQHLCGSHLVEALYLVC)	–	–	–	–	1/6	–	1/6	2/4	2/6	2/6	1/6	–
L3P2, 076 (GRTGTYILIDMVLNRMA)	1/4	4/6	6/6	1/4	5/6	3/6	–	3/4	6/6	5/6	5/6	–
